Experimental data reported in ChEMBL document CHEMBL3046521, “Synthesis and antitumor activity of (4-hydroxyphenyl)[5-substituted alkyl/aryl)-2-thioxo-1,3,4-thiadiazol-3-yl]methanone and [(3,4-disubstituted)-1,3-thiazol-2ylidene]-4-hydroxybenzohydrazide” (2011).

Assays:
Assay type in all cases: functional
SNB-19 = assay: Cytotoxicity against Homo sapiens (human) SNB19 cells after 48 hr by sulforhodamine B assay; details: SNB-19, 48 h
OVCAR-3 = assay: Cytotoxicity against Homo sapiens (human) OVCAR3 cells after 48 hr by sulforhodamine B assay; details: OVCAR-3, 48 h
EKVX = assay: Cytotoxicity against Homo sapiens (human) EKVX cells after 48 hr by sulforhodamine B assay
Malme-3M = assay: Cytotoxicity against Homo sapiens (human) MALME-3M cells after 48 hr by sulforhodamine B assay
[1] = Cytotoxicity against Homo sapiens (human) NCI-ADR-RES cells after 48 hr by sulforhodamine B assay
SK-MEL-28 = assay: Cytotoxicity against Homo sapiens (human) SK-MEL-28 cells after 48 hr by sulforhodamine B assay; details: SK-MEL-28, 48 h
MDA-MB-231 = assay: Cytotoxicity against Homo sapiens (human) MDA-MB-231 cells after 48 hr by sulforhodamine B assay; details: MDA-MB-231, 48 h
M14 = assay: Cytotoxicity against Homo sapiens (human) M14 cells after 48 hr by sulforhodamine B assay; details: M14, 48 h
NCI-H226 = assay: Cytotoxicity against Homo sapiens (human) NCI-H226 cells after 48 hr by sulforhodamine B assay; details: NCI-H226, 48 h
SN12C = assay: Cytotoxicity against Homo sapiens (human) SN12C cells after 48 hr by sulforhodamine B assay
OVCAR-4 = assay: Cytotoxicity against Homo sapiens (human) OVCAR4 cells after 48 hr by sulforhodamine B assay; details: OVCAR-4, 48 h
HOP-92 = assay: Cytotoxicity against Homo sapiens (human) HOP92 cells after 48 hr by sulforhodamine B assay; details: HOP-92, 48 h
MOLT-4 = assay: Cytotoxicity against Homo sapiens (human) MOLT4 cells after 48 hr by sulforhodamine B assay; details: MOLT-4, 48 h
TK-10 = assay: Cytotoxicity against Homo sapiens (human) TK10 cells after 48 hr by sulforhodamine B assay; details: TK-10, 48 h
OVCAR-8 = assay: Cytotoxicity against Homo sapiens (human) OVCAR8 cells after 48 hr by sulforhodamine B assay; details: OVCAR-8, 48 h
HCT-116 = assay: Cytotoxicity against Homo sapiens (human) HCT116 cells after 48 hr by sulforhodamine B assay; details: HCT-116, 48 h
BT-549 = assay: Cytotoxicity against Homo sapiens (human) BT549 cells after 48 hr by sulforhodamine B assay; details: BT-549, 48 h
RXF 393 = assay: Cytotoxicity against Homo sapiens (human) RXF393 cells after 48 hr by sulforhodamine B assay; details: RXF 393, 48 h
SK-OV-3 = assay: Cytotoxicity against Homo sapiens (human) SKOV3 cells after 48 hr by sulforhodamine B assay; details: SK-OV-3, 48 h
OVCAR-5 = assay: Cytotoxicity against Homo sapiens (human) OVCAR5 cells after 48 hr by sulforhodamine B assay; details: OVCAR-5, 48 h
SF-268 = assay: Cytotoxicity against Homo sapiens (human) SF268 cells after 48 hr by sulforhodamine B assay; details: SF-268, 48 h
UACC-257 = assay: Cytotoxicity against Homo sapiens (human) UACC257 cells after 48 hr by sulforhodamine B assay; details: UACC-257, 48 h
LOX IMVI = assay: Cytotoxicity against Homo sapiens (human) LOXIMVI cells after 48 hr by sulforhodamine B assay
SF-539 = assay: Cytotoxicity against Homo sapiens (human) SF539 cells after 48 hr by sulforhodamine B assay; details: SF-539, 48 h
HCT-15 = assay: Cytotoxicity against Homo sapiens (human) HCT15 cells after 48 hr by sulforhodamine B assay; details: HCT-15, 48 h
HCC 2998 = assay: Cytotoxicity against Homo sapiens (human) HCC2998 cells after 48 hr by sulforhodamine B assay; details: HCC 2998, 48 h
K562 = assay: Cytotoxicity against Homo sapiens (human) K562 cells after 48 hr by sulforhodamine B assay; details: K562, 48 h
HL-60(TB) = assay: Cytotoxicity against Homo sapiens (human) HL-60(TB) cells after 48 hr by sulforhodamine B assay; details: HL-60, 48 h
A549 = assay: Cytotoxicity against Homo sapiens (human) A549 cells after 48 hr by sulforhodamine B assay; details: A549, 48 h
CCRF-CEM = assay: Cytotoxicity against Homo sapiens (human) CCRF-CEM cells after 48 hr by sulforhodamine B assay
MDA-MB-468 = assay: Cytotoxicity against Homo sapiens (human) MDA-MB-468 cells after 48 hr by sulforhodamine B assay; details: MDA-MB-468, 48 h

In the case of `O=C(c1ccc(O)cc1)n1nc(-c2c(Cl)cccc2Cl)sc1=S`, the GI50 (SNB-19) is reported as 15.1 µM, the LC50 (SNB-19) is reported as greater than 100 µM and the TGI (SNB-19; read-out: pTGI (converted)) is reported as 67.6 µM. The GI50 (OVCAR-3) was 6.17 µM, the LC50 (OVCAR-3) was 67.6 µM and the TGI (OVCAR-3; read-out: pTGI (converted)) was 28.8 µM. For the same molecule, the GI50 (EKVX) was 5.01 µM, the LC50 (EKVX) was greater than 100 µM and the TGI (EKVX; read-out: pTGI (converted)) was 69.2 µM. The GI50 (Malme-3M) was 29.5 µM, the LC50 (Malme-3M) was greater than 100 µM and the TGI (Malme-3M; read-out: pTGI (converted)) was 49 µM. For the same molecule, the GI50 [1] was 10 µM, the LC50 [1] was greater than 100 µM and the TGI ([1]; read-out: pTGI (converted)) was 49 µM. The GI50 (SK-MEL-28) was 16.2 µM, the LC50 (concentration killing 50% of cells) (SK-MEL-28) was 87.1 µM and the TGI (SK-MEL-28; read-out: pTGI (converted)) was 37.2 µM. For the same molecule, the GI50 (MDA-MB-231) was 13.2 µM, the LC50 (MDA-MB-231) was greater than 100 µM and the TGI (MDA-MB-231; read-out: pTGI (converted)) was 60.3 µM. The GI50 (M14) was 8.91 µM, the LC50 (M14) was 67.6 µM and the TGI (M14; read-out: pTGI (converted)) was 25.7 µM. The GI50 (NCI-H226) was 12.9 µM, the LC50 (NCI-H226) was greater than 100 µM and the TGI (NCI-H226; read-out: pTGI (converted)) was 57.5 µM. The GI50 (SN12C) was 11.2 µM, the LC50 (SN12C) was greater than 100 µM and the TGI (SN12C; read-out: pTGI (converted)) was 46.8 µM. The GI50 (OVCAR-4) was 11.5 µM, the LC50 (OVCAR-4) was greater than 100 µM and the TGI (OVCAR-4; read-out: pTGI (converted)) was 77.6 µM. The GI50 (HOP-92) was 0.324 µM, the LC50 (HOP-92) was 43.7 µM and the TGI (HOP-92; read-out: pTGI (converted)) was 7.76 µM. The GI50 (MOLT-4) was 4.47 µM, the LC50 (MOLT-4) was greater than 100 µM and the TGI (MOLT-4; read-out: pTGI (converted)) was 27.5 µM. It also gave a GI50 (TK-10) of 4.47 µM, an LC50 (TK-10) greater than 100 µM and a TGI (TK-10; read-out: pTGI (converted)) of 42.7 µM. The GI50 (OVCAR-8) was 22.9 µM, the LC50 (OVCAR-8) was greater than 100 µM and the TGI (OVCAR-8; read-out: pTGI (converted)) was 72.4 µM. The GI50 (HCT-116) was 10.7 µM, the LC50 (HCT-116) was 52.5 µM and the TGI (HCT-116; read-out: pTGI (converted)) was 24 µM. For the same molecule, the GI50 (BT-549) was 28.8 µM, the LC50 (BT-549) was greater than 100 µM and the TGI (BT-549; read-out: pTGI (converted)) was 60.3 µM. It also gave a GI50 (RXF 393) of 17.4 µM, an LC50 (RXF 393) greater than 100 µM and a TGI (RXF 393; read-out: pTGI (converted)) of 51.3 µM. For the same molecule, the GI50 (SK-OV-3) was 17.4 µM, the LC50 (SK-OV-3) was greater than 100 µM and the TGI (SK-OV-3; read-out: pTGI (converted)) was 44.7 µM. It also gave a GI50 (OVCAR-5) of 19.5 µM, an LC50 (OVCAR-5) greater than 100 µM and a TGI (OVCAR-5; read-out: pTGI (converted)) of 61.7 µM. The GI50 (SF-268) was 7.59 µM, the LC50 (SF-268) was greater than 100 µM and the TGI (SF-268; read-out: pTGI (converted)) was 34.7 µM. For the same molecule, the GI50 (UACC-257) was 14.1 µM, the LC50 (UACC-257) was greater than 100 µM and the TGI (UACC-257; read-out: pTGI (converted)) was 41.7 µM. The GI50 (LOX IMVI) was 10 µM, the LC50 (LOX IMVI) was 75.9 µM and the TGI (LOX IMVI; read-out: pTGI (converted)) was 27.5 µM. For the same molecule, the GI50 (SF-539) was 14.8 µM, the LC50 (SF-539) was 58.9 µM and the TGI (SF-539; read-out: pTGI (converted)) was 29.5 µM. The GI50 (HCT-15) was 6.46 µM, the LC50 (concentration killing 50% of cells) (HCT-15) was greater than 100 µM and the TGI (HCT-15; read-out: pTGI (converted)) was 32.4 µM. For the same molecule, the GI50 (HCC 2998) was 4.9 µM, the LC50 (HCC 2998) was greater than 100 µM and the TGI (HCC 2998; read-out: pTGI (converted)) was 28.8 µM. For the same molecule, the GI50 (K562) was 3.39 µM, the LC50 (K562) was greater than 100 µM and the TGI (K562; read-out: pTGI (converted)) was 28.8 µM. For the same molecule, the GI50 (HL-60(TB)) was 2 µM, the CC50 (HL-60(TB); read-out: pLC50 (the source's name) (converted)) was greater than 100 µM and the TGI (HL-60(TB); read-out: pTGI (converted)) was 30.9 µM. The GI50 (A549) was 12.3 µM, the LC50 (A549) was greater than 100 µM and the TGI (A549; read-out: pTGI (converted)) was 58.9 µM. It also gave a GI50 (CCRF-CEM) of 9.55 µM, an LC50 (CCRF-CEM) greater than 100 µM and a TGI (CCRF-CEM; read-out: pTGI) greater than 100 µM. For the same molecule, the GI50 (MDA-MB-468) was 8.71 µM, the LC50 (MDA-MB-468) was greater than 100 µM and the TGI (MDA-MB-468; read-out: pTGI (converted)) was 91.2 µM.
